Measurements from patent US3969522A, “Diaryl-pyridyl-imidazole methanes for treating mycotic infections” (Bayer Aktiengesellschaft, priority 1972, dated 1976).
≈ marks a conversion by molar mass, not a printed value. Where a name gives a salt, the structure may show the parent alone.

Assays:
Type in all cases: cell-based
[1] = tested on: Penicillium commune; experiment: series dilution test in vitro, Penicillium commune; settings: 28° C, 24 to 96 hours; for MIC: read-out: Minimum Inhibitory Concentration
Protocol: (§1) A. Determination of the antimycotic action spectrum in vitro by means of the series dilution test
(§2) Sabourauds' milieu d'epreuve is used as the nutrient substrate for dermatophytes and Aspergilli, and meat-broth-glucose-bouillon is used as the nutrient substrate for blastomyces. The incubation temperature is 28° C and the incubation time is 24 to 96 hours.

[2] = tested on: Candida albicans; experiment: series dilution test in vitro, Candida albicans; settings: 28° C, 24 to 96 hours; for MIC: read-out: Minimum Inhibitory Concentration
Protocol: as §1, §2

[3] = tested on: Aspergillis niger; experiment: series dilution test in vitro, Aspergillus niger; settings: Sabourauds' milieu d'epreuve, 28° C, 24 to 96 hours; for MIC: Aspergillus niger, read-out: Minimum Inhibitory Concentration
Protocol: as §1, §2

[4] = tested on: Trichophyton mentagrophytes; experiment: series dilution test in vitro, Trichophyton mentagrophytes; settings: Sabourauds' milieu d'epreuve, 28° C, 24 to 96 hours; for MIC: read-out: Minimum Inhibitory Concentration
Protocol: as §1, §2

Structure (SMILES): Cc1ccc(C(c2ccccc2)(c2ccncc2)n2ccnc2)cc1C (stereo not drawn) [Example 5, 1-(3,4-dimethylphenyl-phenyl-4-pyridyl)-methyl-imidazole]
- Minimum Inhibitory Concentration [1]: 10 µg/mL
- MIC [2]: 1 µg/mL (≈ 2.95 µM)
- Minimum Inhibitory Concentration [3]: 1 µg/mL
- Minimum Inhibitory Concentration [4]: 0.5 µg/mL

Structure (SMILES): Cc1ccc(C)c(C(c2ccccc2)(c2ccncc2)n2ccnc2)c1 (stereo not drawn) [Example 6, 1-(2,5-dimethylphenyl-phenyl-4-pyridyl)-methyl-imidazole]
- MIC [1]: 40 µg/mL (≈ 118 µM)
- MIC [2]: 4 µg/mL (≈ 11.8 µM)
- MIC [3]: 40 µg/mL (≈ 118 µM)
- MIC [4]: 0.5 µg/mL (≈ 1.47 µM)

Structure (SMILES): Cc1cccc(C(c2ccccc2)(c2ccccn2)n2ccnc2)c1C (stereo not drawn) [Example 8, 1-(2,3-dimethylphenyl-phenyl-2-pyridyl)-methyl-imidazole 1,5-naphthalenedisulphonate]
- Minimum Inhibitory Concentration [1]: 4 µg/mL
- Minimum Inhibitory Concentration [2]: 1 µg/mL
- Minimum Inhibitory Concentration [3]: 1 µg/mL
- Minimum Inhibitory Concentration [4]: 1 µg/mL

Structure (SMILES): Cc1ccc(C(c2ccccc2)(c2ccccn2)n2ccnc2)c(C)c1 (stereo not drawn) [Example 2, 1-(2,4-dimethylphenyl-phenyl-2-pyridyl)-methyl-imidazole]
- MIC [1]: 4 µg/mL (≈ 11.8 µM)
- MIC [2]: 10 µg/mL (≈ 29.5 µM)
- MIC [3]: 4 µg/mL (≈ 11.8 µM)
- MIC [4]: 0.5 µg/mL (≈ 1.47 µM)

Structure (SMILES): Cc1cccc(C)c1C(c1ccccc1)(c1ccccn1)n1ccnc1 (stereo not drawn) [Example 3, 1-(2,6-dimethylphenyl-phenyl-2-pyridyl)-methyl-imidazole hydrochloride]
- MIC [1]: 10 µg/mL
- MIC [2]: 1 µg/mL
- MIC [3]: 4 µg/mL
- MIC [4]: 0.5 µg/mL

Structure (SMILES): Cc1ccc(C(c2ccccc2)(c2ccncc2)n2ccnc2)c(C)c1 (stereo not drawn) [Example 4, 1-(2,4-dimethylphenyl-phenyl-4-pyridyl)-methyl-imidazole]
- MIC [1]: 10 µg/mL (≈ 29.5 µM)
- MIC [2]: 4 µg/mL (≈ 11.8 µM)
- MIC [3]: 4 µg/mL (≈ 11.8 µM)
- MIC [4]: 0.5 µg/mL (≈ 1.47 µM)

Structure (SMILES): Cc1cccc(C(c2ccccc2)(c2ccccn2)n2ccnc2)c1C (stereo not drawn) [Example 7, 1-(2,3-dimethylphenyl-phenyl-2-pyridyl)-methyl-imidazole]
- Minimum Inhibitory Concentration [1]: 1 µg/mL
- MIC [2]: 1 µg/mL (≈ 2.95 µM)
- Minimum Inhibitory Concentration [3]: 0.1 µg/mL
- Minimum Inhibitory Concentration [4]: 0.05 µg/mL

Structure (SMILES): Cc1ccc(C(c2ccccc2)(c2ccncc2)n2ccnc2)cc1C (stereo not drawn) [Example 10, 1-(3,4-dimethylphenyl-phenyl-4-pyridyl)-methyl-imidazole 1,5-naphthalenedisulphonate]
- Minimum Inhibitory Concentration [1]: 4 µg/mL
- Minimum Inhibitory Concentration [2]: 1 µg/mL
- Minimum Inhibitory Concentration [3]: 4 µg/mL
- Minimum Inhibitory Concentration [4]: 10 µg/mL

Structure (SMILES): FC(F)(F)c1cccc(C(c2ccccc2)(c2ccccn2)n2ccnc2)c1 (stereo not drawn) [Known Compound 2, 1-(3-trifluoromethylphenyl-phenyl-2-pyridyl)-methylimidazole, reference compound]
- Minimum Inhibitory Concentration [1]: > 2 µg/mL
- MIC [1]: < 4 µg/mL
- MIC [2]: 4 µg/mL (≈ 10.5 µM)
- MIC [3]: < 4 µg/mL
- Minimum Inhibitory Concentration [3]: > 2 µg/mL
- Minimum Inhibitory Concentration [4]: > 2 µg/mL
- MIC [4]: < 4 µg/mL

Structure (SMILES): Fc1ccc(C(c2ccccc2)(c2ccccn2)n2ccnc2)cc1 (stereo not drawn) [Known Compound 1, 1-(4-fluorophenyl-phenyl-2-pyridyl)-methylimidazole, reference compound]
- Minimum Inhibitory Concentration [1]: > 2 µg/mL
- MIC [1]: < 4 µg/mL
- MIC [2]: 4 µg/mL (≈ 12.1 µM)
- MIC [3]: 4 µg/mL (≈ 12.1 µM)
- Minimum Inhibitory Concentration [3]: 2 µg/mL
- Minimum Inhibitory Concentration [4]: > 2 µg/mL
- MIC [4]: < 4 µg/mL

Structure (SMILES): Cc1cccc(C(c2ccccc2)(c2ccncc2)n2ccnc2)c1C (stereo not drawn) [Example 9, 1-(2,3-dimethylphenyl-phenyl-4-pyridyl)-methyl-imidazole]
- MIC [1]: 4 µg/mL (≈ 11.8 µM)
- MIC [2]: 1 µg/mL (≈ 2.95 µM)
- MIC [3]: 1 µg/mL (≈ 2.95 µM)
- MIC [4]: 0.5 µg/mL (≈ 1.47 µM)

Structure (SMILES): Cc1ccc(C(c2ccccc2)(c2ccccn2)n2ccnc2)cc1C (stereo not drawn) [Example 1, 1-(3,4-dimethylphenyl-phenyl-2-pyridyl)-methyl-imidazole]
- MIC [1]: 4 µg/mL (≈ 11.8 µM)
- MIC [2]: 1 µg/mL (≈ 2.95 µM)
- MIC [3]: < 1 µg/mL
- MIC [4]: 0.5 µg/mL (≈ 1.47 µM)
